From DBAASP
In brackets after ≈: the same amount, converted by molar mass.

What was measured:
Test in all cases: ≥ marks a high value that may be exact or a test limit, other limits are often not marked, values filed in µg/mL are converted to µM
Bacillus anthracis = tested on: Bacillus anthracis
Bacillus cereus = tested on: Bacillus cereus
Escherichia coli = tested on: Escherichia coli
Staphylococcus aureus = tested on: Staphylococcus aureus
Escherichia coli BL21 = tested on: Escherichia coli BL21
[1] = tested on: Pseudomonas aeruginosa PAO1
[2] = tested on: Streptococcus pyogenes M1T1 5448
[3] = tested on: Staphylococcus aureus USA 300

| MIC (Escherichia coli BL21) [µM] | MIC [1] [µM] | MIC [2] [µM] | MIC [3] [µM] | Compound | MIC (Bacillus anthracis) [µM] | MIC (Bacillus cereus) [µM] | MIC (Escherichia coli) [µM] | MIC (Staphylococcus aureus) [µM] |
| --- | --- | --- | --- | --- | --- | --- | --- | --- |
| 0.25 (≈ 0.764 µg/mL) | 8 (≈ 24.4 µg/mL) | 0.5 (≈ 1.53 µg/mL) |  | CC[C@H](C)[C@H](NC(=O)[C@H](CCCN=C(N)N)NC(=O)CNC(=O)[C@@H](NC(=O)[C@H](CCCCN)NC(=O)[C@H](CCCN=C(N)N)NC(=O)[C@@H](NC(=O)[C@H](Cc1ccc(O)cc1)NC(=O)[C@H](CCCN=C(N)N)NC(=O)[C@H](CCCN=C(N)N)NC(=O)[C@H](CC(C)C)NC(=O)[C@H](CCC(=O)O)NC(=O)[C@H](CCCCN)NC(=O)[C@H](C)NC(=O)[C@@H](NC(=O)[C@H](CCCN=C(N)N)NC(=O)[C@H](CC(N)=O)NC(=O)[C@@H](NC(=O)[C@H](CCCCN)NC(=O)[C@H](C)N)[C@@H](C)O)[C@@H](C)CC)[C@@H](C)CC)C(C)C)C(=O)N[C@@H](C)C(=O)N[C@@H](CCCN=C(N)N)C(=O)N[C@@H](CCCCN)C(=O)N[C@@H](C)C(=O)N[C@@H](Cc1c[nH]c2ccccc12)C(=O)O [AKTNRIAKELRRYIRKVGRIARKAW] |  |  |  |  |
| 2 (≈ 6.17 µg/mL) | 16 (≈ 49.3 µg/mL) | 4 (≈ 12.3 µg/mL) | ≥ 128 | CC[C@H](C)[C@H](NC(=O)[C@H](Cc1c[nH]c2ccccc12)NC(=O)[C@H](CCC(N)=O)NC(=O)[C@H](CCCN=C(N)N)NC(=O)CNC(=O)[C@H](C)N)C(=O)N[C@@H](C)C(=O)N[C@@H](CCCCN)C(=O)N[C@@H](Cc1ccc(O)cc1)C(=O)N[C@@H](CC(C)C)C(=O)N[C@@H](CCCN=C(N)N)C(=O)N[C@@H](CCCN=C(N)N)C(=O)N[C@@H](CCC(=O)O)C(=O)N[C@H](C(=O)N[C@@H](CCCN=C(N)N)C(=O)N[C@@H](CCCCN)C(=O)N[C@@H](CCCN=C(N)N)C(=O)NCC(=O)N[C@@H](CCCN=C(N)N)C(=O)N[C@@H](CCCCN)C(=O)N[C@@H](C)C(=O)N[C@H](C(=O)N[C@H](C(=O)N[C@@H](C)C(=O)N[C@@H](Cc1c[nH]c2ccccc12)C(=O)O)[C@@H](C)CC)C(C)C)[C@@H](C)CC [AGRQWIAKYLRREIRKRGRKAVIAW] |  |  |  |  |

Continued, molecule first:

| Compound | MIC (Escherichia coli BL21) [µM] | MIC [1] [µM] | MIC [2] [µM] | MIC [3] [µM] | MIC (Bacillus anthracis) [µM] | MIC (Bacillus cereus) [µM] | MIC (Escherichia coli) [µM] | MIC (Staphylococcus aureus) [µM] |
| --- | --- | --- | --- | --- | --- | --- | --- | --- |
| CC(C)C[C@H](NC(=O)[C@H](CO)NC(=O)[C@H](CC(C)C)NC(=O)[C@H](Cc1ccccc1)NC(=O)[C@@H](NC(=O)[C@H](CO)NC(=O)[C@H](CO)NC(=O)[C@H](CCCN=C(N)N)NC(=O)[C@H](Cc1ccccc1)NC(=O)[C@@H](NC(=O)[C@@H](NC(=O)[C@@H]1CCCN1C(=O)[C@H](CO)NC(=O)[C@H](C)N)[C@@H](C)O)C(C)C)C(C)C)C(=O)N[C@@H](Cc1ccccc1)C(=O)N[C@H](C(=O)N[C@H](C(=O)N[C@@H](C)C(=O)N[C@@H](CCCCN)C(=O)N[C@@H](CCCCN)C(=O)O)C(C)C)C(C)C [ASPTVFRSSVFLSLFVVAKK] |  |  |  |  | ≥ 117 | ≥ 117 | > 117 | > 117 |
| CC[C@H](C)[C@H](NC(=O)[C@@H](NC(=O)[C@H](C)NC(=O)[C@@H]1CCCN1C(=O)[C@H](Cc1ccccc1)NC(=O)[C@@H](NC(=O)[C@H](CCCCN)NC(=O)[C@H](CO)NC(=O)[C@H](C)NC(=O)[C@@H](NC(=O)[C@H](CCCN=C(N)N)NC(=O)[C@H](Cc1ccccc1)NC(=O)[C@H](CC(C)C)NC(=O)[C@H](C)NC(=O)CNC(=O)[C@@H](N)CC(C)C)C(C)C)C(C)C)C(C)C)C(=O)N[C@@H](CO)C(=O)N[C@@H](CCSC)C(=O)N[C@H](C(=O)N[C@@H](CCCCN)C(=O)O)C(C)C [LGALFRVASKVFPAVISMVK] |  |  |  |  | 30 (≈ 64 µg/mL) | 30 (≈ 64 µg/mL) | 120 (≈ 256 µg/mL) | 30 (≈ 64 µg/mL) |
| CC[C@H](C)[C@H](NC(=O)[C@H](CCC(=O)O)NC(=O)[C@H](CCCN=C(N)N)NC(=O)[C@H](CCCN=C(N)N)NC(=O)[C@H](CC(C)C)NC(=O)[C@H](Cc1ccc(O)cc1)NC(=O)[C@H](C)NC(=O)[C@H](CCCCN)NC(=O)[C@@H](NC(=O)[C@@H](NC(=O)[C@H](CCC(N)=O)NC(=O)[C@H](CCCN=C(N)N)NC(=O)CNC(=O)[C@H](C)N)[C@@H](C)O)[C@@H](C)CC)C(=O)N[C@@H](CCCN=C(N)N)C(=O)N[C@@H](CCCCN)C(=O)N[C@@H](CCCN=C(N)N)C(=O)NCC(=O)N[C@@H](CCCN=C(N)N)C(=O)N[C@@H](CCCCN)C(=O)N[C@@H](C)C(=O)N[C@H](C(=O)N[C@H](C(=O)N[C@@H](C)C(=O)N[C@@H](Cc1c[nH]c2ccccc12)C(=O)O)[C@@H](C)CC)C(C)C [AGRQTIKAYLRREIRKRGRKAVIAW] | 8 (≈ 24 µg/mL) | 16 (≈ 48 µg/mL) | 8 (≈ 24 µg/mL) |  |  |  |  |  |
